The results in this text go back to patent US20230086152A1, “USE OF DESLORATADINE AND SALTS THEREOF IN PREPARING DRUG FOR TREATING NEURODEGENERATIVE DISEASE RELATED TO MOTOR DYSFUNCTION” (NANJING UNIVERSITY OF CHINESE MEDICINE, priority 2021, published 2023).

Structures are written as SMILES.

Common to all, as to assay type: in vivo
In experiment [1] the test system is SOD1-G93A model mice. In words: Cage experimental test (limb grip strength). As to conditions: model DLT group 20 mg/kg/day vs model solvent group; age of 14 to 15 weeks; FIG. 3. The source says: 3) Cage experimental test: The SOD1-G93A model mice show atrophy of the hind limbs and decreased grip strength of the limbs after the onset of the disease. The handing strength at the limbs of the mice is detected by the cage experimental test.
(§1) 1) Animal grouping: Experimental test mice B6SJL-BTg (SOD1-G93A) 1Gur/J (002726) are purchased from Jackson Laboratory in the United States. A total of 48 SOD1-G93A mice are obtained by the gene identification, and their littermates are used as negative control, and they are randomly divided into 4 groups, which are: (1) a wild-type solvent group (2) a wild-type DLT group (20 mg/kg/day), (3) a model solvent group and (4) a model DLT group (20 mg/kg/day). All mice are administered from the age of 56 days (8 weeks old), and 12 mice in each group are sacrificed from the beginning of administration to the age of 120 days. Histopathological, biochemical and immunological analyses are performed on tissues such as blood, muscles and spinal cords from eyeballs of mice. […]
4) Cage experimental test: From the 8th week, the test is carried out once a week. […] The maximum time for the mice to grip the cage cover is recorded, the maximum time is set to be 90 seconds, and the specific time is recorded when it is less than 90 seconds. […]

The subject of experiment [2] is SOD1-G93A model mice. In words: Gait monitoring experimental test. As to conditions: model DLT group 20 mg/kg/day vs model solvent group; after the 15th week; FIG. 2. On the procedure: 1) Animal grouping: Experimental test mice B6SJL-BTg (SOD1-G93A) 1Gur/J (002726) are purchased from Jackson Laboratory in the United States. A total of 48 SOD1-G93A mice are obtained by the gene identification, and their littermates are used as negative control, and they are randomly divided into 4 groups, which are: (1) a wild-type solvent group (2) a wild-type DLT group (20 mg/kg/day), (3) a model solvent group and (4) a model DLT group (20 mg/kg/day). All mice are administered from the age of 56 days (8 weeks old), and 12 mice in each group are sacrificed from the beginning of administration to the age of 120 days. Histopathological, biochemical and immunological analyses are performed on tissues such as blood, muscles and spinal cords from eyeballs of mice. Compounds are administered to the remaining mice until their deaths, which is used to detect the onset time and survival cycle of mice.
3) Gait monitoring experimental test: In order to obtain footprints, the forefeet and hind feet of SOD1-G93A model mice are painted with red and green non-toxic pigments, respectively. The mice walk along a track with a length of 50 cm and a width of 10 cm, and the gaits of the mice are recorded. […] Footprints of the mice are analyzed, and the average of three result statistics is used in the analysis for recording the gait lengths of the mice.

The test system of experiment [3] is SOD1-G93A model mice. In words: Rotarod experimental test. The conditions noted are these: model DLT group 20 mg/kg/day vs model solvent group; days 101 to 115; FIG. 1.
Text: 1) Rotarod experimental test: SOD1-G93A model mice will have motor dysfunction when they are onset, and therefore, the motor coordination and balance function of the forelimb and hind limbs can be assessed by detecting the duration that the mice stay on the rotarod.
as §1, with “days.” for “days. Histopathological, biochemical and immunological analyses are performed on tissues such as blood, muscles and spinal cords from eyeballs of mice.”
2) Rotarod experimental test: From the age of 60 days, the motor function of SOD1-G93A model mice is detected by the rotarod apparatus. […] Motor coordination and balance are evaluated for each mouse by measuring the mouse's total movement time on the rotarod apparatus. Three trials are performed for each mouse, and the longest dwell time before falling is recorded, and the longest dwell time is set at 180 seconds.
A general note: In the rotarod test animals must keep their balance on a rotating rod.

For experiment [4], the system named is SOD1-G93A model mice. In words: Detection of onset time and survival cycle. As to conditions: model DLT group 20 mg/kg/day from the age of 56 days, p<0.05.
Text: 4) Detection on onset time and survival cycle: The duration from onset to death of SOD1-G93A model mice is shorter, which is similar to the human ALS. Whether it can effectively delay the onset of the disease and prolong the survival cycle is an important indicator.
as §1, with “days.” for “days. Histopathological, biochemical and immunological analyses are performed on tissues such as blood, muscles and spinal cords from eyeballs of mice.”
5) Detection of onset time and survival cycle: The onset time of transgenic mice is defined as the dates when they first fall from the rotarod apparatus and will not persist for 180 seconds. The dates of deaths of the transgenic mice are defined as the deaths of the mice if the righting reflex cannot be completed within 30 seconds when the mice are lying on their sides, and the days are recorded as the death dates of the mice.

As for `Clc1ccc2c(c1)CCc1cccnc1C2=C1CCNCC1` [desloratadine], the “persistence in gripping the cage cover” value in the experiment on SOD1-G93A model mice [1] is reported as “persist better”. The gait length analysis entry with SOD1-G93A model mice [2] was “significantly better”. Further, in the experiment with SOD1-G93A model mice [3], the “time stayed on the rotarod” value is listed as “much longer period of time”. The “onset time (first fall from the rotarod)” value with SOD1-G93A model mice [4] (model solvent group 97.6±1.473 d, FIG. 4) came to 103.4 ± 1.705 days. The “survival cycle (failure to complete the righting reflex within 30 seconds)” value in the experiment on SOD1-G93A model mice [4] (model solvent group 126±1.721 d, FIG. 5) turned out to be 131.6 ± 1.51 days.
